Where a name gives a salt, the structure may show the parent alone.
Legend:
[1] = molecular target: T1, stearoyl-CoA desaturase (SCD1) (Mus musculus, UniProt P13516); assay: SCD microsomal assay using mouse liver microsomes (release of 3H2O from [9,10-3H]stearoyl-CoA); format: biochemical; settings: 15 min incubation, 25° C.
T1 construct: Male ICR outbread mice, on a high-carbohydrate, low fat diet; from tissue; host or cells: liver microsomes of male ICR mice on a high-carbohydrate, low fat diet
T1 sequence (P13516 1-355): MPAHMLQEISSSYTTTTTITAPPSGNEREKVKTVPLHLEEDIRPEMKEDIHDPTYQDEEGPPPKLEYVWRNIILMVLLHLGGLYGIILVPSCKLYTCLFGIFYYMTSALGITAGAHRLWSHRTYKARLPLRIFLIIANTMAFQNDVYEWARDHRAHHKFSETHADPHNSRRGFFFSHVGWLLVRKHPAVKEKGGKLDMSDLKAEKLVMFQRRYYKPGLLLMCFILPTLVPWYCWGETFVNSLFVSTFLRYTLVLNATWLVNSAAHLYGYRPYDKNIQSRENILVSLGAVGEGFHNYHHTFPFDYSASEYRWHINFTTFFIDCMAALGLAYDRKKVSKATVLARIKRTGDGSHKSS
Description: The identification of compounds of the invention as SCD inhibitors was readily accomplished using the SCD enzyme and microsomal assay procedure described in Shanklin J. and Summerville C., Proc. Natl. Acad. Sci. USA (1991), Vol. 88, pp. 2510-2514.
Measuring Stearoyl-CoA Desaturase Inhibition Activity of a Test Compound Using Mouse Liver Microsomes
The identification of compounds of the invention as SCD inhibitors was readily accomplished using the SCD microsomal assay procedure described in Shanklin J. and Summerville C., Proc. Natl. Acad. Sci. USA (1991), Vol. 88, pp. 2510-2514.
Male ICR outbread mice, on a high-carbohydrate, low fat diet, under light halothane (15% in mineral oil) anesthesia are sacrificed by exsanguination during periods of high enzyme activity. Livers are immediately rinsed with cold 0.9% NaCl solution, weighed and minced with scissors. All procedures are performed at 4′C unless specified otherwise. Livers are homogenized in a solution (1/3 w/v) containing 025 M sucrose, 62 mM potassium phosphate buffer (pH 7.0), 0.15 M KCL 15 mM N-acetyleysteine, 5 mM MgCl2, and 0.1 mM EDTA using 4 strokes of a Potter-Elvehjem tissue homogenizer. The homogenate is centrifuged at 10,400×g for 20 min to eliminate mitochondria and cellular debris. The supernatant is filtered through a 3-layer cheesecloth and centrifuged at 105,000×g for 60 min. The microsomal pellet is gently resuspended in the same homogenization solution with a small glass/teflon homogenizer and stored at −70° C. The absence of mitochondrial contamination is enzymatically assessed. The protein concentration is measured using bovine serum albumin as the standard.
Desaturase activity is measured as the release of ^3H2O from [9,10-^3H]stearoyl-CoA. Reactions per assay point conditions are as follows: 2 μL 1.5 mM stearoyl-CoA, 0.25 μL 1 mCi/mL ^3H-stearoyl CoA, 10 μL 20 mM NADH, 36.75 μL 0.1 M PK buffer (K2HPO4/NaH2PO4, pH 7.2). The test compound or control solution is added in a 1 μL volume. Reactions are started by adding 50 μL of microsomes (1.25 mg/mL). The plates are mixed and after 15 min incubation on a heating block (25° C.), the reactions are stopped by the addition of 10 μL 60% PCA. An aliquot of 100 μL is then transferred to a fitter plate pretreated with charcoal and the plate centrifuged at 4000 rpm for 1 minute. The flow through containing the ^3H2O released by the SCD1 desaturation reaction is added to scintillation fluid and the radioactivity measured in a Packard TopCount. The data is analysed to identify the IC50 for test compounds and reference compounds.
The activity was defined in terms of % SCD enzyme activity remaining at the desired concentration of the test compound or as the IC50 concentration. The IC50 (affinity) of the example compounds toward the stearoyl-CoA desaturase is comprised between around […] and 0.0001 μM or between around […] 0.0001 μM or between around 1 μM and 0.0001 μM.

Row | SMILES | IC50 [1] | melting point
1 | CNC(=O)c1ccnc(NC(=O)N2CCC3(CC2)CC(=O)c2ccc(F)cc2O3)c1 [Example 1, 7-fluoro-N-(4-(methylcarbamoyl)pyridin-2-yl)-4-oxospiro[chroman-2,4′-piperidine]-1′-carboxamide hydrochloride] | 524 nM | –
2 | CNC(=O)c1ccnc(NC(=O)N2CCC3(CCc4cccc(Cl)c4O3)CC2)c1 [Example 1.2, 8-chloro-N-(4-(methylcarbamoyl)pyridin-2-yl)spiro[chroman-2,4′-piperidine]-1′-carboxamide hydrochloride] | 3 nM | –
3 | CNC(=O)c1ccnc(NC(=O)N2CCC3(CC2)CC(=O)c2cccc(Cl)c2O3)c1.Cl [Example 1.3, 8-chloro-N-(4-(methylcarbamoyl)pyridin-2-yl)-4-oxospiro[chroman-2,4′-piperidine]-1′-carboxamide hydrochloride] | 56 nM | 215 °C (dec.)
4 | CNC(=O)c1ccnc(NC(=O)N2CCC3(CC2)Cc2ccccc2C3)c1 [Example 1.7, N-(4-(methylcarbamoyl)pyridin-2-yl)-1,3-dihydrospiro[indene-2,4′-piperidine]-1′-carboxamide] | – | 229 to 231 °C
5 | Cn1cc(CNC(=O)c2ccnc(NC(=O)N3CCC4(CCc5cc(F)ccc5O4)CC3)c2)cn1 [Example 2.1, 6-fluoro-N-(4-{[(1-methyl-1H-pyrazol-4-yl)methyl]carbamoyl}pyridin-2-yl)-3,4-dihydro-1′H-spiro[chromene-2,4′-piperidine]-1′-carboxamide hydrochloride] | 40 nM | –
6 | NC(=O)c1ccnc(NC(=O)N2CCC3(CCc4cc(F)ccc4O3)CC2)c1 [Example 3, N-(4-carbamoylpyridin-2-yl)-6-fluorospiro[chroman-2,4′-piperidine]-1′-carboxamide] | – | 265 to 267 °C
7 | Cc1nc(NC(=O)N2CCC3(CCc4ccc(F)cc4O3)CC2)sc1C(=O)NCc1ccccn1 [Example 4, 7-fluoro-N-(4-methyl-5-(pyridin-2-ylmethylcarbamoyl)thiazol-2-yl)spiro[chroman-2,4′-piperidine]-1′-carboxamide] | 48 nM | 165 to 167 °C

Continued, values first:

Row | IC50 [1] | melting point | SMILES
8 | 17 nM | 177 to 179 °C | CNC(=O)c1ccnc(NC(=O)N2CCC3(CCc4ccc(F)cc4O3)CC2)c1 [Example 1.1, 7-fluoro-N-(4-(methylcarbamoyl)pyridin-2-yl)spiro[chroman-2,4′-piperidine]-1′-carboxamide]
9 | – | 175 to 176 °C | CNC(=O)c1ccnc(NC(=O)N2CCC3(CCc4cc(F)ccc4O3)CC2)c1 [Example 1.4, 6-fluoro-N-(4-(methylcarbamoyl)pyridin-2-yl)spiro[chroman-2,4′-piperidine]-1′-carboxamide]
10 | – | 126 to 128 °C | CNC(=O)c1cccc(NC(=O)N2CCC3(CCc4ccc(F)cc4O3)CC2)n1 [Example 1.5, 7-fluoro-N-(6-(methylcarbamoyl)pyridin-2-yl)spiro[chroman-2,4′-piperidine]-it-carboxamide]
11 | – | 231 to 233 °C | CNC(=O)c1cncc(NC(=O)N2CCC3(CCc4ccc(F)cc4O3)CC2)c1 [Example 1.6, 7-fluoro-N-(5-(methylcarbamoyl)pyridin-3-yl)spiro[chroman-2,4′-piperidine]-1′-carboxamide]

Source: patent publication US20120010135A1, “SPIRO DERIVATIVES FOR THE MODULATION OF STEAROYL-COA DESATURASE” (XENON PHARMACEUTICALS INC., priority 2009, published 2012)
